Results from PubChem BioAssay AID1963846 (Molecular Pharmacology Branch, DTP, NCI, 2024).
pIC50: −log10 of the molar value.

Tested on: 454973-116-R2-J3-PDC complex spheroid viability
Test: Anticancer human tumor 454973-116-R2-J3-PDC patient-derived pancreatic carcinoma cell line growth inhibition [POLQ]
Details: for pIC50: curve of first compound; for viability, T/C: stronger effect = lower value
Procedure, shortened: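 Three-cell-type spheroids modelling solid tumor plus stroma served as the readout system; POL inhibitors were tested individually and in combination, concentration ranges set by clinical Cmax where known.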

[1] = second compound 0.0316 µM, first compound 0.0316 µM
[2] = second compound 0.0316 µM, first compound 0.1 µM
[3] = second compound 0.0316 µM, first compound 0.316 µM
[4] = second compound 0.0316 µM, first compound 1 µM
[5] = second compound 0.0316 µM, first compound 3.16 µM
[6] = second compound 0.0316 µM, first compound 10 µM
[7] = second compound 0.1 µM, first compound 0.0316 µM
[8] = second compound 0.1 µM, first compound 0.1 µM
[9] = second compound 0.1 µM, first compound 0.316 µM
[10] = second compound 0.1 µM, first compound 1 µM
[11] = second compound 0.1 µM, first compound 3.16 µM
[12] = second compound 0.1 µM, first compound 10 µM
[13] = second compound 0.316 µM, first compound 0.0316 µM
[14] = second compound 0.316 µM, first compound 0.1 µM
[15] = second compound 0.316 µM, first compound 0.316 µM
[16] = second compound 0.316 µM, first compound 1 µM
[17] = second compound 0.316 µM, first compound 3.16 µM
[18] = second compound 0.316 µM, first compound 10 µM
[19] = second compound 1 µM, first compound 0.0316 µM
[20] = second compound 1 µM, first compound 0.1 µM
[21] = second compound 1 µM, first compound 0.316 µM
[22] = second compound 1 µM, first compound 1 µM
[23] = second compound 1 µM, first compound 3.16 µM
[24] = second compound 1 µM, first compound 10 µM
[25] = second compound 3.16 µM, first compound 0.0316 µM
[26] = second compound 3.16 µM, first compound 0.1 µM
[27] = second compound 3.16 µM, first compound 0.316 µM
[28] = second compound 3.16 µM, first compound 1 µM
[29] = second compound 3.16 µM, first compound 3.16 µM
[30] = second compound 3.16 µM, first compound 10 µM
[31] = second compound 10 µM, first compound 0.0316 µM
[32] = second compound 10 µM, first compound 0.1 µM
[33] = second compound 10 µM, first compound 0.316 µM
[34] = second compound 10 µM, first compound 1 µM
[35] = second compound 10 µM, first compound 3.16 µM
[36] = second compound 10 µM, first compound 10 µM
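Also: spheroids exposed to drugs for seven days before measurement.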
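For viability, T/C in this document: percent viability relative to DMSO vehicle control wells taken as 100%.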

O=C(c1cc(Cc2n[nH]c(=O)c3ccccc23)ccc1F)N1CCN(C(=O)C2CC2)CC1 + COC1C(OC(N)=O)C(O)C(Oc2ccc3c(O)c(NC(=O)c4ccc(O)c(CC=C(C)C)c4)c(=O)oc3c2C)OC1(C)C
pIC50 (second compound 0.0316 µM): < 5.00 | pIC50 (second compound 0.1 µM): < 5.00 | pIC50 (second compound 0.316 µM): < 5.00 | pIC50 (second compound 1 µM): < 5.00 | pIC50 (second compound 3.16 µM): < 5.00 | pIC50 (second compound 10 µM): < 5.00 | viability, T/C [1]: 103% | viability, T/C [2]: 105% | viability, T/C [3]: 96.9% | viability, T/C [4]: 116% | viability, T/C [5]: 93.7% | viability, T/C [6]: 61.6% | viability, T/C [7]: 106% | viability, T/C [8]: 113% | viability, T/C [9]: 106% | viability, T/C [10]: 116% | viability, T/C [11]: 94.6% | viability, T/C [12]: 63.2% | viability, T/C [13]: 110% | viability, T/C [14]: 107% | viability, T/C [15]: 99.4% | viability, T/C [16]: 113% | viability, T/C [17]: 98.3% | viability, T/C [18]: 69.7% | viability, T/C [19]: 121% | viability, T/C [20]: 104% | viability, T/C [21]: 104% | viability, T/C [22]: 105% | viability, T/C [23]: 97.5% | viability, T/C [24]: 63.3% | viability, T/C [25]: 115% | viability, T/C [26]: 104% | viability, T/C [27]: 109% | viability, T/C [28]: 103% | viability, T/C [29]: 94.7% | viability, T/C [30]: 64.2% | viability, T/C [31]: 106% | viability, T/C [32]: 94% | viability, T/C [33]: 95.6% | viability, T/C [34]: 107% | viability, T/C [35]: 99.2% | viability, T/C [36]: 59.4%

CC1COCCN1c1cc(C2(S(C)(=N)=O)CC2)nc(-c2ccnc3[nH]ccc23)n1 (stereo unspecified) + Cc1cccc(N(C)C(=O)C2C(O)CCN2c2nc(C)cc(C(F)(F)F)c2C#N)c1
pIC50 (second compound 0.0316 µM): 5.19 | pIC50 (second compound 0.1 µM): 5.16 | pIC50 (second compound 0.316 µM): 5.24 | pIC50 (second compound 1 µM): 5.23 | pIC50 (second compound 3.16 µM): 5.18 | pIC50 (second compound 10 µM): 5.23 | viability, T/C [1]: 111% | viability, T/C [2]: 105% | viability, T/C [3]: 103% | viability, T/C [4]: 108% | viability, T/C [5]: 85.2% | viability, T/C [6]: 27.4% | viability, T/C [7]: 111% | viability, T/C [8]: 116% | viability, T/C [9]: 105% | viability, T/C [10]: 104% | viability, T/C [11]: 75.2% | viability, T/C [12]: 37.9% | viability, T/C [13]: 104% | viability, T/C [14]: 107% | viability, T/C [15]: 111% | viability, T/C [16]: 110% | viability, T/C [17]: 72.4% | viability, T/C [18]: 29.4% | viability, T/C [19]: 111% | viability, T/C [20]: 113% | viability, T/C [21]: 114% | viability, T/C [22]: 109% | viability, T/C [23]: 75% | viability, T/C [24]: 29.1% | viability, T/C [25]: 117% | viability, T/C [26]: 112% | viability, T/C [27]: 113% | viability, T/C [28]: 96.3% | viability, T/C [29]: 80.8% | viability, T/C [30]: 33% | viability, T/C [31]: 114% | viability, T/C [32]: 112% | viability, T/C [33]: 106% | viability, T/C [34]: 102% | viability, T/C [35]: 74.6% | viability, T/C [36]: 28.8%

CCCS(=O)(=O)Nc1ccc(F)c(C(=O)c2c[nH]c3ncc(-c4ccc(Cl)cc4)cc23)c1F + Nc1ccc(C#CCN(C(=O)Cc2ncc(C(F)(F)F)cc2C(F)(F)F)c2ccc(F)cc2)nn1
pIC50 (second compound 0.0316 µM): 5.06 | pIC50 (second compound 0.1 µM): 5.09 | pIC50 (second compound 0.316 µM): 5.07 | pIC50 (second compound 1 µM): 5.06 | pIC50 (second compound 3.16 µM): 5.07 | pIC50 (second compound 10 µM): 5.12 | viability, T/C [1]: 106% | viability, T/C [2]: 109% | viability, T/C [3]: 117% | viability, T/C [4]: 114% | viability, T/C [5]: 114% | viability, T/C [6]: 40.7% | viability, T/C [7]: 104% | viability, T/C [8]: 109% | viability, T/C [9]: 108% | viability, T/C [10]: 115% | viability, T/C [11]: 113% | viability, T/C [12]: 37.6% | viability, T/C [13]: 106% | viability, T/C [14]: 109% | viability, T/C [15]: 110% | viability, T/C [16]: 114% | viability, T/C [17]: 120% | viability, T/C [18]: 39.5% | viability, T/C [19]: 112% | viability, T/C [20]: 116% | viability, T/C [21]: 116% | viability, T/C [22]: 117% | viability, T/C [23]: 114% | viability, T/C [24]: 40.4% | viability, T/C [25]: 116% | viability, T/C [26]: 118% | viability, T/C [27]: 112% | viability, T/C [28]: 115% | viability, T/C [29]: 113% | viability, T/C [30]: 39.3% | viability, T/C [31]: 133% | viability, T/C [32]: 116% | viability, T/C [33]: 117% | viability, T/C [34]: 116% | viability, T/C [35]: 116% | viability, T/C [36]: 28.9%
